# According to US9802901B2, “Antibacterial 2H-indazole derivatives” (priority 2013, dated 2017):
# Tests used:
# Test in all cases: Bacterial growth minimal inhibitory concentration (broth microdilution, CLSI M7-A7)
# E. coli ATCC25922 = format: cell-based, Escherichia coli; conditions: Escherichia coli, ATCC25922; cation-adjusted Mueller-Hinton Broth, microdilution; quinolone-sensitive strain; read-out: MIC for E. coli ATCC25922
# Method in brief: (§1)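 Broth microdilution in cation-adjusted Mueller-Hinton Broth per CLSI M7-A7; MICs reported in mg/L. K. pneumoniae A-651 and A. baumannii T6474 are multiply resistant, quinolone-resistant strains; E. coli ATCC25922 and P. aeruginosa ATCC27853 are quinolone-sensitive.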
# P. aeruginosa ATCC27853 = format: cell-based, Pseudomonas aeruginosa; conditions: Pseudomonas aeruginosa, ATCC27853; cation-adjusted Mueller-Hinton Broth, microdilution; quinolone-sensitive strain; read-out: MIC for P. aeruginosa ATCC27853
# Method in brief: as §1
# [1] = system: Acinetobacter baumannii T6474; format: cell-based; conditions: Acinetobacter baumannii, T6474; cation-adjusted Mueller-Hinton Broth, microdilution; multiply-resistant (quinolone-resistant) strain; read-out: MIC for A. Baumannii T6474
# Method in brief: as §1
# K. pneumoniae A-651 = format: cell-based, Klebsiella pneumoniae; conditions: Klebsiella pneumoniae, A651; cation-adjusted Mueller-Hinton Broth, microdilution; multiply-resistant (quinolone-resistant) strain; read-out: MIC for K. Pneumoniae A-651
# Method in brief: as §1
SMILES,MIC (E. coli ATCC25922) [µg/mL],MIC (P. aeruginosa ATCC27853) [µg/mL],MIC [1] [µg/mL],MIC (K. pneumoniae A-651) [µg/mL]
"C[C@@](O)(C#CC#Cc1ccc2nn(CC[C@](C)(C(=O)NO)S(C)(=O)=O)cc2c1)CO [Example 46, (R)-4-(5-((R)-5,6-dihydroxy-5-methylhexa-1,3-diyn-1-yl)-2H-indazol-2-yl)-N-hydroxy-2-methyl-2-(methylsulfonyl)butanamide]",4,4,> 32,8
"C[C@@](CCn1cc2cc(C#CC#CC3(CO)CC3)ccc2n1)(C(=O)NO)S(C)(=O)=O [Example 56, (R)—N-hydroxy-4-(5-((1-(hydroxymethyl)cyclopropyl)buta-1,3-diyn-1-yl)-2H-indazol-2-yl)-2-methyl-2-(methylsulfonyl)butanamide]",0.25,0.5,> 32,0.5
"CC(CCn1cc2cc(-c3ccc(OCCCN4CCOCC4)cc3)ccc2n1)(C(=O)NO)S(C)(=O)=O.O=CO (racemic) [RE1, (RS)—N-hydroxy-2-methylsulfonyl-2-methyl-4-{5-[4-(3-morpholin-4-yl-propoxy)-phenyl]-indazol-2-yl}-butanamide formic acid salt]",0.5,4,4,1
"C[C@@](CCn1cc2cc(C#CC#C[C@@H]3CC[C@H](N)CO3)ccc2n1)(C(=O)NO)S(C)(=O)=O (relative stereo) [Example 61, (R)-4-(5-(((2S*,5S*)-5-aminotetrahydro-2H-pyran-2-yl)buta-1,3-diyn-1-yl)-2H-indazol-2-yl)-N-hydroxy-2-methyl-2-(methylsulfonyl)butanamide]",2,1,> 8,4
"C[C@@](CCn1cc2cc(C#CC#CC3(O)COC3)ccc2n1)(C(=O)NO)S(C)(=O)=O [Example 28, (R)—N-hydroxy-4-(5-((3-hydroxyoxetan-3-yl)buta-1,3-diyn-1-yl)-2H-indazol-2-yl)-2-methyl-2-(methylsulfonyl)butanamide]",0.5,1,> 32,0.5
"COc1ccc(-c2ccc3nn(CC[C@](C)(C(=O)NO)S(C)(=O)=O)cc3c2F)c(F)c1 [Example 6, (R)-4-[4-fluoro-5-(2-fluoro-4-methoxy-phenyl)-indazol-2-yl]-N-hydroxy-2-methylsulfonyl-2-methyl-butanamide]",0.125,4,2,0.5
"C[C@@](CCn1cc2cc(C#CC#C[C@@]3(F)C[C@@H]3CO)ccc2n1)(C(=O)NO)S(C)(=O)=O [Example 74, (R)-4-(5-(((1R,2R)-1-fluoro-2-(hydroxymethyl)cyclopropyl)buta-1,3-diyn-1-yl)-2H-indazol-2-yl)-N-hydroxy-2-methyl-2-(methylsulfonyl)butanamide]",0.125,0.5,4,0.125
"COc1cccc(-c2ccc3nn(CCC(C)(C(=O)NO)S(C)(=O)=O)cc3c2)c1F (racemic) [RE7, (RS)-4-(5-(2-fluoro-3-methoxyphenyl)-2H-indazol-2-yl)-N-hydroxy-2-methyl-2-(methylsulfonyl)butanamide]",0.125,2,0.5,0.125

# Now from value to compound:
MIC (E. coli ATCC25922) [µg/mL],MIC (P. aeruginosa ATCC27853) [µg/mL],MIC [1] [µg/mL],MIC (K. pneumoniae A-651) [µg/mL],SMILES
≤ 0.063,0.5,4,≤ 0.063,"C[C@@](CCn1cc2c(F)c(C#CC#C[C@H]3C[C@@H]3CO)ccc2n1)(C(=O)NO)S(C)(=O)=O [Example 54, (R)-4-(4-fluoro-5-(((1S,2S)-2-(hydroxymethyl)cyclopropyl)buta-1,3-diyn-1-yl)-2H-indazol-2-yl)-N-hydroxy-2-methyl-2-(methylsulfonyl)butanamide]"
0.125,1,0.5,0.125,"C[C@@](CCn1cc2cc(C#Cc3ccc(C4(CO)CC4)cc3)ccc2n1)(C(=O)NO)S(C)(=O)=O [Example 16, (R)—N-hydroxy-4-(5-((4-(1-(hydroxymethyl)cyclopropyl)phenyl)ethynyl)-2H-indazol-2-yl)-2-methyl-2-(methylsulfonyl)butanamide]"
0.125,4,2,0.5,"COc1ccc(-c2ccc3nn(CC[C@](C)(C(=O)NO)S(C)(=O)=O)cc3c2F)cc1 [Example 4, (R)-4-[4-fluoro-5-(4-methoxy-phenyl)-indazol-2-yl]-N-hydroxy-2-methylsulfonyl-2-methyl-butanamide]"
0.125,0.5,4,0.125,"C[C@@](CCn1cc2c(F)c(C#CC#C[C@H]3C[C@@H]3CO)ccc2n1)(C(=O)NO)S(C)(=O)=O (relative stereo) [Example 18, (R)-4-{4-fluoro-5-[4-((1S*,2S*)-2-hydroxymethyl-cyclopropyl)-buta-1,3-diynyl]-indazol-2-yl}-N-hydroxy-2-methylsulfonyl-2-methyl-butanamide]"
0.063,0.5,0.5,0.063,"C[C@@](CCn1cc2cc(C#Cc3ccc(CCO)cc3)ccc2n1)(C(=O)NO)S(C)(=O)=O [Example 25, (R)—N-hydroxy-4-{5-[4-(2-hydroxy-ethyl)-phenylethynyl]-indazol-2-yl}-2-methylsulfonyl-2-methyl-butanamide]"
0.125,4,0.25,0.5,"C[C@@](CCn1cc2cc(-c3ccc(OC(F)(F)F)cc3F)ccc2n1)(C(=O)NO)S(C)(=O)=O [Example 35, (R)-4-[5-(2-fluoro-4-trifluoromethoxy-phenyl)-indazol-2-yl]-N-hydroxy-2-methylsulfonyl-2-methyl-butanamide]"
0.063,0.5,2,0.125,"C[C@@H](O)c1ccc(C#Cc2ccc3nn(CC[C@](C)(C(=O)NO)S(C)(=O)=O)cc3c2)cc1 [Example 33, (R)—N-hydroxy-4-(5-((4-((R)-1-hydroxyethyl)phenyl)ethynyl)-2H-indazol-2-yl)-2-methyl-2-(methylsulfonyl)butanamide]"
0.125,1,1,0.25,"CC(CCn1cc2cc(C#Cc3ccc(C4(O)COC4)cc3)c(F)cc2n1)(C(=O)NO)S(C)(=O)=O (stereo not drawn) [Example 40, 4-(6-fluoro-5-((4-(3-hydroxyoxetan-3-yl)phenyl)ethynyl)-2H-indazol-2-yl)-N-hydroxy-2-methyl-2-(methylsulfonyl)butanamide]"
0.125,0.5,8,0.25,"C[C@@](CCn1cc2cc(C#CC#CC34CC(CO)(C3)C4)ccc2n1)(C(=O)NO)S(C)(=O)=O [Example 57, (R)—N-hydroxy-4-(5-((3-(hydroxymethyl)bicyclo[1.1.1]pentan-1-yl)buta-1,3-diyn-1-yl)-2H-indazol-2-yl)-2-methyl-2-(methylsulfonyl)butanamide]"
0.063,16,1,0.063,"C[C@@](CCn1cc2cc(/C=C/c3ccccc3)ccc2n1)(C(=O)NO)S(C)(=O)=O [Example 17, (R)—N-hydroxy-2-methylsulfonyl-2-methyl-4-[5-((E)-styryl)-indazol-2-yl]-butanamide]"
